From patent publication US20080255085A1, “Novel Imidazo [4,5-b] Pyridine Derivatives as Inhibitors of Glycogen Synthase Kinase 3 for Use in the Treatment of Dementia and Neurodegenerative Disorders” (ASTRAZENECA AB, priority 2005, published 2008)
Where a name gives a salt, the structure may show the parent alone.

What follows are molecules tested against T1, GSK3β (Homo sapiens, UniProt P49841) (assay: GSK3β Scintillation Proximity Assay (ATP competition)). Details: recombinant human GSK3; 1 μM ATP; Km of ATP 20 μM used to calculate Ki; 20 minutes at room temperature.
T1 construct: purchased Dundee University, UK
Format: biochemical
Procedure: Determination of ATP Competition in Scintillation Proximity GSK3β Assay.
GSK3β Scintillation Proximity Assay.
The competition experiments were carried out in duplicate with 10 different concentrations of the inhibitors in clear-bottom microtiter plates (Wallac, Finland). A biotinylated peptide substrate, Biotin-Ala-Ala-Glu-Glu-Leu-Asp-Ser-Arg-Ala-Gly-Ser(PO3H2)-Pro-Gln-Leu (AstraZeneca, Lund), was added at a final concentration of 1 μM in an assay buffer containing 1 mU recombinant human GSK3 (Dundee University, UK), 12 mM morpholinepropanesulfonic acid (MOPS), pH 7.0, 0.3 mM EDTA, 0.01% β-mercaptorethanol, 0.004% Brij 35 (a […] detergent), 0.5% glycerol and 0.5 μg BSA/25 μl. The reaction was initiated by the addition of 0.04 μCi [γ-^33P]ATP (Amersham, UK) and unlabelled ATP at a final concentration of 1 μM and assay volume of 25 μl. After incubation for 20 minutes at room temperature, each reaction was terminated by the addition of 25 μl stop solution containing 5 mM EDTA, […] ATP, 0.1% Triton X-100 and 0.25 mg streptavidin coated Scintillation Proximity Assay (SPA) beads (Amersham, UK). After 6 hours the radioactivity was determined in a liquid scintillation counter (1450 MicroBeta Trilux, Wallac). The inhibition curves were analysed by non-linear regression using GraphPad Prism, USA. The Km value of ATP for GSK3β, used to calculate the inhibition constants (Ki) of the various compounds, was 20 μM.

T1 sequence (P49841 whole entry): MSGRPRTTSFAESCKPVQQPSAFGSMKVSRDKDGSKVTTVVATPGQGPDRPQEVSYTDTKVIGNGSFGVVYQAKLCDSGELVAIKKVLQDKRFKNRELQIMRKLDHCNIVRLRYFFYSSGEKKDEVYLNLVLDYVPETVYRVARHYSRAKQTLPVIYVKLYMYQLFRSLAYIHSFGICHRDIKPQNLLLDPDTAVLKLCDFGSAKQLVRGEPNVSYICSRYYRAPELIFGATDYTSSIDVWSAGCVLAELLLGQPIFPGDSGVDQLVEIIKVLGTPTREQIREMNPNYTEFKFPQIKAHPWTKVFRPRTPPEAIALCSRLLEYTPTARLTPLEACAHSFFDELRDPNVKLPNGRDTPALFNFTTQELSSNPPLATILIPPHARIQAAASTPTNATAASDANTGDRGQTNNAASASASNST

Ki [nM]	Compound
124	COc1cccc(-c2ccnc3[nH]c(-c4ccc(S(=O)(=O)N5CCN(C)CC5)cc4)nc23)c1 [Example 2, 7-(3-Methoxyphenyl)-2-{4-[(4-methylpiperazin-1-yl)sulfonyl]phenyl}-3H-imidazo[4,5-b]pyridine hydrochloride]
44	COc1ccc(-c2ccnc3[nH]c(-c4ccc(C(=O)NCCN5CCOCC5)cc4)nc23)cc1 [Example 7, 4-[7-(4-Methoxyphenyl)-3H-imidazo[4,5-b]pyridin-2-yl]-N-(2-morpholin-4-ylethyl)benzamide hydrochloride]
31	COc1ccc(-c2ccnc3[nH]c(-c4ccc(CN5CCCCC5)cc4)nc23)cc1 [Example 6, 7-(4-Methoxyphenyl)-2-[4-(piperidin-1-ylmethyl)phenyl]-3H-imidazo[4,5-b]pyridine hydrochloride]
254	CN1CCN(C(=O)c2ccc(-c3nc4c(-c5cccnc5)ccnc4[nH]3)cc2)CC1 [Example 9, 2-{4-[(4-Methylpiperazin-1-yl)carbonyl]phenyl}-7-pyridin-3-yl-3H-imidazo[4,5-b]pyridine hydrochloride]
